Experimental data: ChEMBL document CHEMBL5724914, “Linking interpersonal differences in gut microbiota composition and drug biotransformation activity” (2024)

Tests used:
[1] = (§1) The drug is tested on WLS-077 corresponding to human gut metagenome with ENA study accession number: PRJEB37062 and ENA sample accession number: ERS12561750 for biotransformation under anaerobic condition. The drug concentrations were measured over 9 timepoints collected between 0 and 24 hours of incubation by liquid-chromatography-coupled mass spectrometry (LC–MS); conditions: 2 µM
[2] = as §1, with “Z-027” for “WLS-077”, “to” for “to human gut”, “ERS12561826” for “ERS12561750”; conditions: 2 µM
[3] = as §1, with “Z-001” for “WLS-077”, “mouse” for “human”, “ERS12561801” for “ERS12561750”; conditions: 2 µM
[4] = as §1, with “Z-004” for “WLS-077”, “to” for “to human gut”, “ERS12561804” for “ERS12561750”; conditions: 2 µM
[5] = human gut metagenome, 24 h, 2 µM
[6] = as §1, with “Z-003” for “WLS-077”, “pig” for “human”, “ERS12561803” for “ERS12561750”; conditions: 2 µM
[7] = as §1, with “WLS-082” for “WLS-077”, “ERS12561751” for “ERS12561750”; conditions: 2 µM
[8] = as §1, with “WLS-038” for “WLS-077”, “ERS12561745” for “ERS12561750”; conditions: 2 µM
[9] = human gut metagenome, 24 h, 2 µM; remark: listed apart in the source
[10] = human gut metagenome, 24 h, 2 µM; remark: listed apart in the source
[11] = as §1, with “Z-008” for “WLS-077”, “to” for “to human gut”, “ERS12561808” for “ERS12561750”; conditions: 2 µM
[12] = human gut metagenome, 24 h, 2 µM; remark: listed apart in the source
[13] = human gut metagenome, 24 h, 2 µM; remark: listed apart in the source
[14] = human gut metagenome, 24 h, 2 µM; remark: listed apart in the source
[15] = human gut metagenome, 24 h, 2 µM; remark: listed apart in the source
[16] = as §1, with “Z-019” for “WLS-077”, “rat” for “human”, “ERS12561818” for “ERS12561750”; conditions: 2 µM
[17] = as §1, with “Z-023” for “WLS-077”, “to” for “to human gut”, “ERS12561822” for “ERS12561750”; conditions: 2 µM
[18] = as §1, with “WLS-069” for “WLS-077”, “ERS12561748” for “ERS12561750”; conditions: 2 µM
[19] = as §1, with “Z-020” for “WLS-077”, “rabbit” for “human”, “ERS12561819” for “ERS12561750”; conditions: 2 µM
[20] = as §1, with “WLS-007” for “WLS-077”, “ERS12561742” for “ERS12561750”; conditions: 2 µM
Note: call rule not given here.

Row | SMILES | Bacterial Biotransformation [1] | Bacterial Biotransformation [2] | Bacterial Biotransformation [3] | Bacterial Biotransformation [4] | Bacterial Biotransformation [5] | Bacterial Biotransformation [6] | Bacterial Biotransformation [7] | Bacterial Biotransformation [8] | Bacterial Biotransformation [9] | Bacterial Biotransformation [10] | Bacterial Biotransformation [11] | Bacterial Biotransformation [12] | Bacterial Biotransformation [13] | Bacterial Biotransformation [14] | Bacterial Biotransformation [15] | Bacterial Biotransformation [16] | Bacterial Biotransformation [17] | Bacterial Biotransformation [18] | Bacterial Biotransformation [19] | Bacterial Biotransformation [20]
1 | CN1CCC(=C2c3ccccc3CC(=O)c3sccc32)CC1.O=C(O)/C=C/C(=O)O [KETOTIFEN FUMARATE] | Compound NOT metabolized | Compound NOT metabolized | Compound NOT metabolized | Compound NOT metabolized | Compound NOT metabolized | Compound NOT metabolized | Compound NOT metabolized | Compound NOT metabolized | Compound metabolized | Compound metabolized | Compound NOT metabolized | Compound NOT metabolized | Compound metabolized | Compound NOT metabolized | Compound NOT metabolized | Compound NOT metabolized | Compound NOT metabolized | Compound NOT metabolized | Compound NOT metabolized | Compound metabolized
2 | CN(C)CCC=C1c2ccccc2COc2ccccc21 [DOXEPIN] | Compound NOT metabolized | Compound NOT metabolized | Compound NOT metabolized | Compound NOT metabolized | Compound NOT metabolized | Compound NOT metabolized | Compound NOT metabolized | Compound NOT metabolized | Compound metabolized | Compound metabolized | Compound NOT metabolized | Compound NOT metabolized | Compound metabolized | Compound metabolized | Compound metabolized | Compound NOT metabolized | Compound metabolized | Compound metabolized | Compound NOT metabolized | Compound metabolized
3 | CC(C)c1c(CN(C)C(C)Cc2ccccc2)n(C)n(-c2ccccc2)c1=O (centres undefined) [FAMPROFAZONE] | Compound metabolized | Compound metabolized | Compound metabolized | Compound metabolized | Compound metabolized | Compound metabolized | Compound metabolized | Compound metabolized | Compound metabolized | Compound metabolized | Compound metabolized | Compound metabolized | Compound metabolized | Compound metabolized | Compound metabolized | Compound NOT metabolized | Compound metabolized | Compound metabolized | Compound NOT metabolized | Compound metabolized
4 | COc1ccnc(C[S+]([O-])c2nc3ccc(OC(F)F)cc3[nH]2)c1OC (centres undefined) [PANTOPRAZOLE] | Compound metabolized | Compound metabolized | Compound NOT metabolized | Compound metabolized | Compound metabolized | Compound NOT metabolized | Compound metabolized | Compound metabolized | Compound metabolized | Compound metabolized | Compound metabolized | Compound metabolized | Compound metabolized | Compound NOT metabolized | Compound metabolized | Compound metabolized | Compound metabolized | Compound metabolized | Compound metabolized | Compound metabolized
5 | CC[C@H](C)C(=O)O[C@H]1CCC=C2C=C[C@H](C)[C@H](CC[C@@H]3C[C@@H](O)CC(=O)O3)[C@H]21 [MEVASTATIN] | Compound NOT metabolized | Compound NOT metabolized | Compound NOT metabolized | Compound NOT metabolized | Compound metabolized | Compound NOT metabolized | Compound metabolized | Compound metabolized | Compound metabolized | Compound NOT metabolized | Compound NOT metabolized | Compound NOT metabolized | Compound metabolized | Compound NOT metabolized | Compound NOT metabolized | Compound NOT metabolized | Compound metabolized | Compound metabolized | Compound NOT metabolized | Compound NOT metabolized
6 | C[C@]12C=CC(=O)C=C1CC[C@@H]1[C@@H]2C(=O)C[C@@]2(C)[C@H]1CC[C@]2(O)C(=O)CO [PREDNISONE] | Compound metabolized | Compound NOT metabolized | Compound metabolized | Compound metabolized | Compound metabolized | Compound metabolized | Compound metabolized | Compound metabolized | Compound metabolized | Compound metabolized | Compound NOT metabolized | Compound NOT metabolized | Compound metabolized | Compound NOT metabolized | Compound metabolized | Compound NOT metabolized | Compound metabolized | Compound metabolized | Compound metabolized | Compound metabolized
7 | CC1=C(CC(=O)O)c2cc(F)ccc2/C1=C\c1ccc([S+](C)[O-])cc1 (centres undefined) | Compound metabolized | Compound NOT metabolized | Compound NOT metabolized | Compound NOT metabolized | Compound metabolized | Compound NOT metabolized | Compound metabolized | Compound metabolized | Compound metabolized | Compound metabolized | Compound NOT metabolized | Compound NOT metabolized | Compound metabolized | Compound metabolized | Compound metabolized | Compound NOT metabolized | Compound metabolized | Compound metabolized | Compound NOT metabolized | Compound metabolized
8 | C#C[C@]1(OC(C)=O)CC[C@H]2[C@@H]3CCC4=C[C@@H](OC(C)=O)CC[C@@H]4[C@H]3CC[C@@]21C [ETHYNODIOL DIACETATE] | Compound metabolized | Compound metabolized | Compound metabolized | Compound metabolized | Compound metabolized | Compound metabolized | Compound metabolized | Compound metabolized | Compound metabolized | Compound metabolized | Compound metabolized | Compound metabolized | Compound metabolized |  | Compound metabolized | Compound NOT metabolized | Compound metabolized | Compound metabolized | Compound metabolized | Compound metabolized
